Earlier results on 1 compound are cited in patent publication US12708633B2, “Cannabidiol-dominant formulations, methods of manufacturing, and uses thereof” (Tilray Brands, Inc., priority 2021, dated 2026).

For series [1] the following is noted: due to high intestinal permeability and low aqueous solubility.
For series [2] the following is noted: humans.

Consider `C=C(C)[C@@H]1CCC(C)=C[C@H]1c1c(O)cc(CCCCC)cc1O` [CBD, Cannabidiol], for which the “Biopharmaceutical Classification System (BCS) class” value in series [1] was “Class II”. Also, the oral bioavailability result in series [2] is listed as “low”.
